From patent publication US12655125B2 (SIRONAX LTD., priority 2020, dated 2026)

system: HT-29 cells; assay: HT29 Cells 0FBS Assay In Vitro (TNF-α/SMAC mimetic/zVAD-FMK induced necroptosis, CellTiter-Glo cell viability); assay type: cell-based; conditions: Homo sapiens; HT-29 cells, FBS free medium, TNF-α (10 ng/ml), SMAC mimetic (6 uM), zVAD-FMK (10 μM), 20 hours; geometric mean EC50; read-out: Cell activity (EC50) of Compounds 1-116
Description: Protocol for HT29 Cells 0FBS Assay In Vitro
• Cell line: HT-29 (ATCC® HTB-38™) • Culture medium: McCOY's 5 A, Gibco, Cat No. 16600-082 • FBS, Gibco, Cat No. 10099-141C • Trypsin: Gibco, Cat No. 25200-056 • DMSO: Sigma, Cat No. 67-68-5, 1 L • Assay plate: Corning #3903 • Compound dilution plate: Corning #3357 • Inducers: TNFα, GenScript, Cat No. ZO1001-50, • SmacM, Cat. No., HY-15989, MedChemExpress (MCE) • Z_VAD FMK, TargetMol, T6013 • Cell Titer-Glo® Luminescent Cell Viability Assay Kit: Promega, Cat No. G7573 • EnVision: PerkinElmer, 2105-0010 2. Cell Seeding of HT-29 Cells • 1) HT-29 cells were checked every day to make sure they are healthy and growing as expected. They were split sub-culturing when were approximately 80% confluent. • 2) First pre-warm the culture medium of McCOY's 5 A medium (Gibco, Cat No. 16600-082) with 10% FBS (Gibco, Cat No. 10099-141C) in 37° C. water bath for at least 30 min. • 3) Growing cells to desired level of confluency 80% in a T75 flask, aspirate the medium, and wash with warm PBS two times. • 4) Add 2-3 ml fresh warm trypsin (Gibco, Cat No. 25200-056) solution. Transfer the flask to a 37° C. incubator. • 5) After 5 minutes, tap the side of the flask, and examine the flask under a microscope for lifting. If necessary, return the cells to the incubator for an additional 5-10 minutes, with occasional tapping, until lifting is complete. • 6) Quickly neutralize the trypsin reaction by adding 6-9 ml cell culture medium, then transfer the cells to sterile 15 ml conical tubes. Pellet the cells by centrifugation at 300×g for 7 minutes, then decant the supernatant. • 7) Resuspend the cells in fresh cell culture medium. Do cell counting with hemocytometer. • 8) Seed 100 μl of 5,000 cells into each well of the sterile 96-well cell culture plate (Corning 3903) and culture overnight at 37° C. with 5% C02. 3. Compounds Titration and Treatment of HT-29 Cells • 1) All batches of compounds (CPDs) (e.g., compound 1-281) were dissolved in DMSO (Dimethyl sulfoxide) as 20 mM stock solution. • 2) Take 3 ul 20 mM stock solution of CPDs to 27 ul DMSO and mix well, continue the titration ratio of 1:3 (20 ul CPDs+40 ul DMSO), e.g., to give solutions of CPDS at 6.6 mM, 2.2 mM, etc., till the 10 points end. • 3) Take out assay plates with HT-29 cells from incubator, remove all culture medium then wash 1 time with 1×PBS, and change fresh McCOY's 5 A medium of FBS free with a cocktail of TNF-α (10 ng/ml), the SMAC mimetic (6 uM) and zVAD-FMK (10 μM) to stimulate the HT-29 cells to increase pRIPK1 levels and necroptosis. • 4) Add 0.5 μL of the diluted compound to the corresponding 96-well assay plates. • 5) Incubate the assay plates for 20 hours at 37° C. with 5% C02. 4. Performing Cell Viability Detection of HT-29 Cells after Treated with Compounds • 1) The CellTiter-Glo® Luminescent Cell Viability Assay was employed to detect the ATP levels of viable HT-29 cells. • 2) Equilibrate the CellTiter-Glo® buffer and the lyophilized substrate to room temperature prior to use. • 3) Resuspend the CellTiter-Glo® substrate with CellTiter-Glo® buffer, mix by gently vortexing to obtain a homogeneous solution. • 4) Pipette 20 μl the enzyme/substrate mixture by multi-channel pipette into the 96-well assay plates from step 5) under the Compounds titration and treatment stage. • 5) Place the plates on an orbital shaker and mix the contents for 3 minutes to induce cell lysis. • 6) Then allow the plates to incubate at room temperature for 10 minutes to stabilize luminescent signal. • 7) Read and record luminescence signal with EnVision. • 8) The geometric mean EC50 of the compounds were calculated from points response dose with duplicate. In Tables 2 and 4, activity is provided as follows: +++=0.1 nM≤EC50<100 nM; ++=100 nM≤EC50<1000 nM; +=1000 nM≤EC50<10000 nM.

Question: For `Cc1nc(C)c(-c2ncc(F)c(OC3CN(C(=O)N4N=CC[C@H]4c4cc(F)cc(F)c4)C3)n2)s1` [compound 19, (S)-(5-(3,5-difluorophenyl)-4,5-dihydro-1H-pyrazol-1-yl)(3-((2-(2,4-dimethylthiazol-5-yl)-5-fluoropyrimidin-4-yl)oxy)azetidin-1-yl)methanone], which EC50 is on record?
Answer: Its EC50 is 0.1 to 100 nM.

Question: With `Cc1oncc1-c1ncc(F)c(OC2CN(C(=O)N3N=CC[C@H]3c3cc(F)cc(F)c3)C2)n1` [compound 21, (S)-(5-(3,5-difluorophenyl)-4,5-dihydro-1H-pyrazol-1-yl)(3-((5-fluoro-2-(5-methylisoxazol-4-yl)pyrimidin-4-yl)oxy)azetidin-1-yl)methanone] as the compound, how does the EC50 read?
Answer: Its EC50 is 0.1 to 100 nM.

Question: With `Cc1scnc1-c1cc(OC2CN(C(=O)N3N=CC[C@H]3c3cc(F)cc(F)c3)C2)c(F)cn1` [compound 14, (S)-(5-(3,5-difluorophenyl)-4,5-dihydro-1H-pyrazol-1-yl)(3-((5-fluoro-2-(5-methylthiazol-4-yl)pyridin-4-yl)oxy)azetidin-1-yl)methanone] as the compound, how does the EC50 read?
Answer: The EC50 was 0.1 to 100 nM.

Question: `Cc1cnn(C)c1-c1cc(OC2CN(C(=O)N3N=CC[C@H]3c3cc(F)cc(F)c3)C2)c(F)cn1` [compound 43, (S)-(5-(3,5-difluorophenyl)-4,5-dihydro-1H-pyrazol-1-yl)(3-((2-(1,4-dimethyl-1H-pyrazol-5-yl)-5-fluoropyridin-4-yl)oxy)azetidin-1-yl)methanone] was tested. Which EC50 did it give?
Answer: Its EC50 is 0.1 to 100 nM.

Question: Which EC50 does the source give for `COC1CN(C(=O)c2cnn(C)c2-c2cc(OC3CN(C(=O)N4N=CC[C@H]4c4cc(F)cc(F)c4)C3)c(F)cn2)C1` [compound 74, (S)-(5-(3,5-difluorophenyl)-4,5-dihydro-1H-pyrazol-1-yl)(3-((5-fluoro-2-(4-(3-methoxyazetidine-1-carbonyl)-1-methyl-1H-pyrazol-5-yl)pyridin-4-yl)oxy)azetidin-1-yl)methanone] here?
Answer: The EC50 was 100 to 1000 nM.

Question: `Cc1nn(CC(=O)N(C)C)c(C)c1-c1ncc(F)c(OC2CN(C(=O)N3N=CC[C@H]3c3cc(F)cc(F)c3)C2)n1` [compound 100, (S)-2-(4-(4-((1-(5-(3,5-difluorophenyl)-4,5-dihydro-1H-pyrazole-1-carbonyl)azetidin-3-yl)oxy)-5-fluoropyrimidin-2-yl)-3,5-dimethyl-1H-pyrazol-1-yl)-N,N-dimethylacetamide] was tested. Which EC50 did it give?
Answer: Its EC50 is 0.1 to 100 nM.

Question: `Cc1nscc1-c1cc(OC2CN(C(=O)N3N=CC[C@H]3c3cc(F)cc(F)c3)C2)c(F)cn1` [compound 17, (S)-(5-(3,5-difluorophenyl)-4,5-dihydro-1H-pyrazol-1-yl)(3-((5-fluoro-2-(3-methylisothiazol-4-yl)pyridin-4-yl)oxy)azetidin-1-yl)methanone] was tested. Which EC50 did it give?
Answer: The EC50 was 0.1 to 100 nM.

Question: For `Cn1ccnc1-c1ccc(F)c(OC2CN(C(=O)N3N=CC[C@H]3c3cc(F)cc(F)c3)C2)n1` [compound 5, (S)-(5-(3,5-difluorophenyl)-4,5-dihydro-1H-pyrazol-1-yl)(3-((3-fluoro-6-(1-methyl-1H-imidazol-2-yl)pyridin-2-yl)oxy)azetidin-1-yl)methanone], which EC50 is on record?
Answer: The EC50 was 0.1 to 100 nM.

Question: With `Cn1nc(N)cc1-c1cc(OC2CN(C(=O)N3N=CC[C@H]3c3cc(F)cc(F)c3)C2)c(F)cn1` [compound 41, (S)-(3-((2-(3-amino-1-methyl-1H-pyrazol-5-yl)-5-fluoropyridin-4-yl)oxy)azetidin-1-yl)(5-(3,5-difluorophenyl)-4,5-dihydro-1H-pyrazol-1-yl)methanone] as the compound, how does the EC50 read?
Answer: Its EC50 is 0.1 to 100 nM.

Question: With `Cc1nnn(C)c1-c1ncc(F)c(OC2CN(C(=O)N3N=CC[C@H]3c3cc(F)cc(F)c3)C2)n1` [compound 46, (S)-(5-(3,5-difluorophenyl)-4,5-dihydro-1H-pyrazol-1-yl)(3-((2-(1,4-dimethyl-1H-1,2,3-triazol-5-yl)-5-fluoropyrimidin-4-yl)oxy)azetidin-1-yl)methanone] as the compound, how does the EC50 read?
Answer: Its EC50 is 0.1 to 100 nM.

same assay, conditions: Homo sapiens; HT-29 cells, FBS free medium, TNF-α (10 ng/ml), SMAC mimetic (6 uM), zVAD-FMK (10 μM), 20 hours; geometric mean EC50; read-out: Cell activity (EC50) of Compounds 117-281

Question: For `Cc1cnn(C)c1-c1cnc(F)c(OC2CN(C(=O)N3N=CC[C@H]3c3cc(F)cc(F)c3)C2)c1` [compound 208, (S)-(5-(3,5-difluorophenyl)-4,5-dihydro-1H-pyrazol-1-yl)(3-((5-(1,4-dimethyl-1H-pyrazol-5-yl)-2-fluoropyridin-3-yl)oxy)azetidin-1-yl)methanone], which EC50 is on record?
Answer: Its EC50 is 0.1 to 100 nM.

Question: For `Cc1nn(-c2cc(OC3CN(C(=O)N4N=CC[C@H]4c4cc(F)cc(F)c4)C3)c(F)cn2)c(C)c1S(=O)(=O)NC1CCCCC1` [compound 242, (S)—N-cyclohexyl-1-(4-((1-(5-(3,5-difluorophenyl)-4,5-dihydro-1H-pyrazole-1-carbonyl)azetidin-3-yl)oxy)-5-fluoropyridin-2-yl)-3,5-dimethyl-1H-pyrazole-4-sulfonamide], which EC50 is on record?
Answer: Its EC50 is 0.1 to 100 nM.

Question: `Cc1nn(-c2ccc(F)c(OC3CN(C(=O)N4N=CC[C@H]4c4cc(F)cc(F)c4)C3)n2)c(C)c1C(N)=O` [compound 275] was tested. Which EC50 did it give?
Answer: The EC50 was 0.1 to 100 nM.

Question: `Cc1nn(-c2cc(OC3CN(C(=O)N4N=CC[C@H]4c4cc(F)cc(F)c4)C3)c(F)cn2)c(C)c1C(=O)O` [compound 233, (S)-1-(4-((1-(5-(3,5-difluorophenyl)-4,5-dihydro-1H-pyrazole-1-carbonyl)azetidin-3-yl)oxy)-5-fluoropyridin-2-yl)-3,5-dimethyl-1H-pyrazole-4-carboxylic acid] was tested. Which EC50 did it give?
Answer: The EC50 was 0.1 to 100 nM.

Question: For `Cn1nc(C#N)cc1-c1cc(OC2CN(C(=O)N3N=CC[C@H]3c3cc(F)cc(F)c3)C2)c(F)cn1` [compound 173, (S)-5-(4-((1-(5-(3,5-difluorophenyl)-4,5-dihydro-1H-pyrazole-1-carbonyl)azetidin-3-yl)oxy)-5-fluoropyridin-2-yl)-1-methyl-11H-pyrazole-3-carbonitrile], which EC50 is on record?
Answer: The EC50 was 0.1 to 100 nM.

Question: With `Cc1c(NCC(N)=O)nn(C)c1-c1cc(OC2CN(C(=O)N3N=CC[C@H]3c3cc(F)cc(F)c3)C2)c(F)cn1` [compound 145, (S)-2-((5-(4-((1-(5-(3,5-difluorophenyl)-4,5-dihydro-1H-pyrazole-1-carbonyl)azetidin-3-yl)oxy)-5-fluoropyridin-2-yl)-1,4-dimethyl-1H-pyrazol-3-yl)amino)acetamide] as the compound, how does the EC50 read?
Answer: Its EC50 is 0.1 to 100 nM.

Question: `Cc1cn[nH]c1-c1cc(OC2CN(C(=O)N3N=CC[C@H]3c3cc(F)cc(F)c3)C2)c(F)cn1` [compound 126, (S)-(5-(3,5-difluorophenyl)-4,5-dihydro-1H-pyrazol-1-yl)(3-((5-fluoro-2-(4-methyl-1H-pyrazol-5-yl)pyridin-4-yl)oxy)azetidin-1-yl)methanone] was tested. Which EC50 did it give?
Answer: Its EC50 is 0.1 to 100 nM.

Question: With `Cc1nn(-c2cc(OC3CN(C(=O)N4N=CC[C@H]4c4cc(F)cc(F)c4)C3)c(F)cn2)c(C)c1S(=O)(=O)NC1CCC1` [compound 235, (S)—N-cyclobutyl-1-(4-((1-(5-(3,5-difluorophenyl)-4,5-dihydro-1H-pyrazole-1-carbonyl)azetidin-3-yl)oxy)-5-fluoropyridin-2-yl)-3,5-dimethyl-1H-pyrazole-4-sulfonamide] as the compound, how does the EC50 read?
Answer: Its EC50 is 0.1 to 100 nM.

Question: For `COC(=O)c1cc(C)n(-c2cc(OC3CN(C(=O)N4N=CC[C@H]4c4cc(F)cc(F)c4)C3)c(F)cn2)c1C` [compound 129, methyl (S)-1-(4-((1-(5-(3,5-difluorophenyl)-4,5-dihydro-1H-pyrazole-1-carbonyl)azetidin-3-yl)oxy)-5-fluoropyridin-2-yl)-2,5-dimethyl-1H-pyrrole-3-carboxylate], which EC50 is on record?
Answer: Its EC50 is 0.1 to 100 nM.
